Data taken from patent US10188633B2, “Identification of small molecules that facilitate therapeutic exon skipping” (The Regents of the University of California, priority 2011, dated 2019).
Where a name gives a salt, the structure may show the parent alone.

Experiments:
[1] = system: human DMD exon 50 GFP based reporter; experiment: BioMol high throughput screen in Ex50-GFP reporter C2C12 myoblasts, with or without AON6; assay type: cell-based, mouse; conditions: compound 10 uM; for Average Fluorescence (n = 3): average of 3 replicate plates
Excerpt: Small molecule libraries were screened for exon skipping promoting activity in C2C12 myoblasts expressing a human DMD exon 50 GFP based reporter. […] In the reporter cells, successful skipping of DMD exon 50 creates in-frame GFP expression. Number of cells that were fluorescing was quantified using a high content cell imager in 384 well plate format. Fluorescence was normalized by subtracting the average fluorescence value of the carrier (DMSO) controls. Fluorescence readouts are plotted for the BioMol library screen both with (+AO) and without (−AO) from Source Plate 1 (containing the Orphan Ligand, Ion Channel, Enzyme Inhibitor, and Endocannabanoid libraries, n=300). Each point for the DMSO controls, all compounds, and the Top 5% from Source Plate 1 (n=15) represents the average normalized fluorescence of 6 replicates in the −AO screen and 3 replicates in the +AO screen. […] Individual points for dantrolene are plotted with the bold horizontal line indicating the median. The short horizontal lines interspersed among the data points indicate 1, 2, and 3 standard deviations away from the DMSO treatment mean fluorescence.
In contrast to prior screens aimed at identifying small molecules which impact exon skipping, our screen is unique at least because it relies on robust quantitation of a skipping reporter in the context of a muscle lineage cell in the presence and absence of suboptimal AO. These screens were performed using a mouse muscle cell line (C2C12) expressing a human DMD exon 50 GFP based reporter selected to minimize experimental variation and sensitivity in the context of an automated and quantitative fluorescent scanning system.
AO was added prior to small molecule incubation in an effort to identify molecules that facilitate AO skipping rather than AO delivery. The fluorescence induced by each compound was normalized to a vehicle controls per plate to correct for plate to plate variability. Fluorescence was averaged across replicate plates (n=6 without AO screen, n=3 with AO screen). Compounds were rank ordered based on average intensity of fluorescence and difference between the without AO and with AO screen (FIG. 1 and Table 2).
(§1) A stable clone was generated from C2C12 cells transfected with a human exon 50 DMD GFP reporter (ex50GFP) that has been previously described. Ex50GFP reporter myoblasts were seeded into uncoated 384 well plates and were incubated for 4 hours either with or without 300 nM of 2′-O-methyl phosphorothioate AON6 [5′[…] 3′ (SEQ ID NO:1)] targeting the human exon 50 splice donor site. Cells were transfected with AON6 using the FUGENE (Roche) transfection reagent per manufacturer's instructions. Following AON6 incubation, each component of the BioMol library (n=503) was screened at 10 uM concentration with a final concentration of the DMSO carrier being 1%. Forty-eight hours later fluorescence was measured using the MicroXpress high content imager and analyzed using MetaXpress. Immediately preceding imaging, DNA was stained with Hoescht for 30 min. The BioMol screen without AO (−AO) was performed in 6 replicates, and the with AO (+AO) screen was performed in 3 replicates. For the screen analysis raw fluorescence values were normalized to carrier controls present on each plate by subtracting the values. Negative fluorescence values were set to 0. The data from each compound were averaged from all replicates. For secondary screening by 12 or 16 point dose response, Ex50GFP myoblasts or C2C12 cells without the reporter were seeded on uncoated 384 well plates. A sub-optimal dose of AON6 targeting DMD exon 50 was added for 4 hours.

[2] = system: DMD exon 51; experiment: DMD exon 51 skipping in reprogrammed DMD patient fibroblasts fused to myotubes (GM05017, iDRM05017) with exon 51 AO; assay type: cell-based, human; conditions: compound added 24 h after AO for two days; nested RT-PCR exons 43-52
Experimental: (A) Differentiated primary mouse myotubes were transfected either with 100 nM 2′-O-methyl M23D, which targets exon 23 splice donor region or mock transfected for 24 hours after which the transfection reagent was removed, and myotubes were treated with different concentrations of Dantrolene for 48 hours. Nested RT-PCR was performed on cDNA between exons 20-26, as previously described. The 901 bp band is the full-length mRNA product, the 688 bp mRNA product is a single skip of exon 23, and the 550 bp mRNA product is a double skip of exons 22 and 23. (B) Mouse Dmd exon 23-skipped transcript levels were quantified using a taqman assay with primer-probe sets spanning the splice junction created by an exon 23 skip (22-24 join) relative to primers amplifying the splice junction of exons 22 and 23 (representing the full length mRNA), as previously described. […] Error bars represent standard deviation of qRT-PCR triplicates. (C) Patient derived fibroblasts with exon 45-50 deletion (confirmed by microarray, see FIG. 6) were immortalized with lentiviral hTERT and transduced with inducible lentiviral MyoD [26]. Cells were grown to confluence, induced for MyoD activity, and fused for 10 days in low serum differentiation media. On Day 7, h51AON [5′ […] 3′] (SEQ ID NO:2) (same sequence as Pro051) within human exon 51 was added at concentrations indicated. Twenty-four hours later Dantrolene or vehicle was added. Cells were harvested 2 days later and total RNA isolated. RT-PCR amplified a fragment of cDNA from exons 42-53 which was followed by a nested PCR to generate a fragment spanning exons 43-52. The 540 bp product is the full length DMD mRNA species and the 307 bp product indicates the exon 51 skip isoform. Quantitation was performed using the Agilent Bioanalyzer and represented as the skip/full-length mRNA ratio.
Patient fibroblasts with a DMD exon 45-50 deletion were immortalized and transduced with a lenti-viral vector expressing inducible MyoD to create iDRMs (inducibly directly reprogrammable myotubes, specifically iDRM05017s). iDRM05017s were induced for MyoD activity and then cultured for 10 days in fusion media. On Day 7, AO was added for twenty-four hours then removed and Piperacetazine, Trifluoperazine Dihydrochloride, Fluphenazine Dihydrochloride or vehicle (Dimethyl sulfoxide; DMSO) were added in fresh media. After two days total RNA was harvested, cDNA reverse transcribed with a DMD specific primer in exon 54, and exon 51 skipping was detected by nested RT-PCR spanning exons 43-52. Quantitation of exon 51 skipping was performed using the Agilent Bioanalyzer and is represented as the proportion of exon 51 skipping. Error bars represent the standard deviation (SD) of 3 independent wells.
Patient fibroblasts were transduced with HTERT and an inducible MyoD vector [26]. […] Exon 51 skipping activity was assessed in the context of transfecting an exon 51 2′-O-methyl AO with equivalent sequence to Pro051 seven days after fusion. This AO is directed at an exonic splicing enhancer (ESE) sequence within exon 51. The AO was removed prior to addition of dantrolene and cultures were harvested two days later. A nested RT-PCR was performed between DMD exons 43-52 and levels of exon 51 skipping were determined by quantitating capillary electrophoresis separated fragments representing skipped and unskipped DMD mRNA.

[3] = system: exon skipping; experiment: Counter screens, 16 point titrations and mdx mouse myotubes (validation of lead hits); assay type: cell-based
Excerpt: The cell line, which was adapted to allow the screening of thousands of compounds in multiple replicates, was obtained from Dr. Qi Lu. […]

[4] = system: DMD exon 51; conditions: cited from earlier work
[5] = system: human DMD exon 50 GFP based reporter; experiment: Secondary screening, 12 or 16 point titrations on the DMD exon 50 reporter cell line with or without AON6; assay type: cell-based, mouse
Experimental: 12 or 16 point titrations of compounds were added to the Ex50-GFP and C2C12 myoblasts either with or without AON6.
as §1, with “hours. Following the 4 hour incubation, a compound dilution was added (beginning at 100 uM with 1:1 dilutions) for either 12 or 16 points. After a 48 hour incubation with compounds, DNA was stained with Hoescht, and fluorescence determined using the high content imager and analyzed with MetaXpress.” for “hours.”

[6] = With AON6 screen, 48 h, fluorescence normalized by subtracting DMSO carrier controls
[7] = With AON6 screen, 48 h, normalized to DMSO carrier controls
[8] = Without AON6 screen, 48 h, normalized to DMSO carrier controls

## Ryanodine
[1]; [6]
  Fluorescence Plate 1: 7.93
[1]; [7]
  Fluorescence Plate 2: 28.86
  Fluorescence Plate 3: 13.31
[1]; With AON6 screen
  Average Fluorescence (n = 3): 16.70
[2]
  AO directed DMD exon 51 skipping: enhance AO directed DMD exon 51 skipping

## O=C(Nc1ccc([N+](=O)[O-])cc1Cl)c1cc(Cl)ccc1O [Niclosamide]
[3]
  efficacy in counter screen and on mdx mouse myotubes: showing efficacy in counter screen and on mdx mouse myotubes

## O=C(O)[C@@H]1[C@H]2C[C@H]3c4[nH]c5ccccc5c4CCN3C[C@@H]2CC[C@@H]1O [Yohimbinic acid]
[2]
  AO directed DMD exon 51 skipping: enhance AO directed DMD exon 51 skipping

## CN1CCN(CCCN2c3ccccc3Sc3ccc(C(F)(F)F)cc32)CC1 [Trifluoperazine dihydrochloride]
[2]
  AO directed DMD exon 51 skipping: enhance AO directed DMD exon 51 skipping

## Pro051: systemic 2′-O-methyl modified AO directed against DMD exon 51 (antisense UCAAGGAAGAUGGCAUUUCU; all 2'-O-methyl, backbone not given here)
[4]; systemic 2'-O-methyl AO, phase 1-2a
  rescued dystrophin protein levels: 1.8-15.6 % of normal
[4]; weekly subcutaneous 6 mg/kg, non-placebo controlled extension
  6 minute walk test at 48 weeks: modest improvement

## CC1=CC(=O)c2ccccc2C1=O [Menadione]
[2]
  AO directed DMD exon 51 skipping: enhances AO directed DMD exon 51 skipping

## COc1ccc2c(c1)CN(C)CCS2 [RyCal S107]
[2]
  AO directed DMD exon 51 skipping: enhance AO directed DMD exon 51 skipping

## Cc1c2ccncc2c(C)c2c1[nH]c1ccccc12 [Ellipticine]
[3]
  efficacy in counter screen and on mdx mouse myotubes: showing efficacy in counter screen and on mdx mouse myotubes

## COC(=O)[C@H]1[C@H]2C[C@H]3c4[nH]c5ccccc5c4CCN3C[C@H]2CC[C@@H]1O [rauwolscine hydrochloride]
[2]
  AO directed DMD exon 51 skipping: enhance AO directed DMD exon 51 skipping

## OCCN1CCN(CCCN2c3ccccc3Sc3ccc(C(F)(F)F)cc32)CC1 [Fluphenazine dihydrochloride]
[2]
  AO directed DMD exon 51 skipping: enhance AO directed DMD exon 51 skipping

## CN(C)CCCn1cc(C2=C(c3c[nH]c4ccccc34)C(=O)NC2=O)c2ccccc21 [GF 109203X]
[1]; [8]
  Fluorescence Plate 1: 22.19
  Fluorescence Plate 2: 15.01
  Fluorescence Plate 3: 13.67
  Fluorescence Plate 4: 66.78
  Fluorescence Plate 5: 64.46
  Fluorescence Plate 6: 66.48
[1]; Without AON6 screen, average of 6 replicate plates
  Average Fluorescence (n = 6): 41.76
[3]
  efficacy in counter screen and on mdx mouse myotubes: showing efficacy in counter screen and on mdx mouse myotubes

## COC(=O)[C@H]1[C@H]2C[C@@H]3c4[nH]c5cc(OC)ccc5c4CCN3C[C@H]2C[C@@H](OC(=O)c2cc(OC)c(OC)c(OC)c2)[C@@H]1OC [Reserpine]
[3]
  efficacy in counter screen and on mdx mouse myotubes: showing efficacy in counter screen and on mdx mouse myotubes

## COC(=O)Nc1nc2cc(Sc3ccccc3)ccc2[nH]1 [Fenbendazole]
[3]
  efficacy in counter screen and on mdx mouse myotubes: showing efficacy in counter screen and on mdx mouse myotubes

## CC(=O)c1ccc2c(c1)N(CCCN1CCC(CCO)CC1)c1ccccc1S2 [piperacetazine]
[2]
  AO directed DMD exon 51 skipping: enhance AO directed DMD exon 51 skipping

## CC1CNCCN1S(=O)(=O)c1cccc2cnccc12 (centres unmarked) [H-7]
[1]; [6]
  Fluorescence Plate 1: 29.03
[1]; [7]
  Fluorescence Plate 2: 30.45
  Fluorescence Plate 3: 12.11
[1]; With AON6 screen
  Average Fluorescence (n = 3): 23.87
[5]; 12 or 16 point titrations from 100 uM, positivity criterion (FIG. 5 legend: >10%)
  increase in fluorescence in the Ex50-GFP+AO compared to the reporter line without AO: 10%
[5]; 12 or 16 point titrations with AON6
  dose response in Ex50-GFP reporter: evidence of a dose response

## O=c1[nH]c2ccccc2n1C1CCN(CCCC(c2ccc(F)cc2)c2ccc(F)cc2)CC1 [PIMOZIDE]
[3]
  efficacy in counter screen and on mdx mouse myotubes: showing efficacy in counter screen and on mdx mouse myotubes

## CCCCN(CCCC)CCC(O)c1cc2c(Cl)cc(Cl)cc2c2cc(C(F)(F)F)ccc12.Cl (centres unmarked) [Halofantrine hydrochloride]
[3]
  efficacy in counter screen and on mdx mouse myotubes: showing efficacy in counter screen and on mdx mouse myotubes

## CCOC(=O)Oc1c(OC)cc(C(=O)O[C@@H]2C[C@@H]3CN4CCc5c([nH]c6cc(OC)ccc56)[C@H]4C[C@@H]3[C@H](C(=O)OC)[C@H]2OC)cc1OC [Syrosingopine]
[3]
  efficacy in counter screen and on mdx mouse myotubes: showing efficacy in counter screen and on mdx mouse myotubes
